Results taken from patent publication US5712297A, “Piperdine compounds and their preparation and use” (Novo Nordisk A/S, priority 1989, dated 1998).
Structures can show the parent of a compound that is named as a salt.

target: muscarinic acetylcholine receptors; assay: Inhibition of specific binding of 3H-Oxotremorine-M (3H-Oxo); set-up: species or system rat (male Wistar; conditions: rat cortex; 3H-Oxotremorine 1.0 nM; 20 mM Hepes pH 7.4; 30 min at 25° C.
Procedure: The pharmacological properties of the compounds of the present invention (Formula I) can be illustrated by determining their capability to inhibit the specific binding of ^3 H-Oxotremorine-M (^3 H-Oxo).
^3 H-Oxo labels muscarinic receptors in the CNS (with a preference for agonist domaines of the receptors). Three different sites are labelled by 3H-Oxo. These sites have affinity of 1.0, 20 and 3000 nM, respectively. Using the present experimental conditions only the high and medium affinity sites are determined. The inhibitory effects of compounds on ^3 H-Oxo binding reflects the affinity for muscarinic acetylcholine receptors.
All preparations are performed at 0°-4° C. unless otherwise indicated. Fresh cortex (0.1-1 g) from male Wistar rats (150-250 g) is homogenized for 5-10 s in 10 ml 20 mM Hepes pH: 7.4, with an Ultra-Turrax homogenizer. The homogenizer is rinsed with 10 ml of buffer and the combined suspension centrifuged for 15 min at 40,000×g. The pellet is washed three times with buffer. In each step the pellet is homogenized as before in 2×10 ml of buffer and centrifuged for 10 min at 40,000×g. The final pellet is homogenized in 20 mM Hepes pH: 7.4 (100 ml per g of original tissue) and used for binding assay. Aliquots of 0.5 ml is added 25 μl of test solution and 25 μl of ^3 H-Oxotremorine (1.0 nM, final concentration) mixed and incubated for 30 min at 25° C. Non-specific binding is determined in triplicate using Arecoline (1 μg/ml, final concentration) as the test substance. After incubation samples are added 5 ml of ice-cold buffer and poured directly onto Whatman GF/C glass fiber filters under suction and immediately washed 2 times with 5 ml of ice-cold buffer. The amount of radioactivity on the filters are determined by conventional liquid scintillation counting. Specific binding is total binding minus non-specific binding. Test substances are dissolved in 10 ml water (if necessary heated on a steam-bath for less than 5 minutes) at a concentration of 2.2 mg/ml. 25-75% inhibition of specific binding must be obtained before calculation of IC50.
The test value will be given as IC50 (the concentration (ng/ml) of the test substance which inhibits the specific binding of ^3 H-Oxo by 50%). [formula] where Co is specific binding in control assays and Cx is the specific binding in the test assay. (The calculations assume normal mass-action kinetics).

Row | Inhibition in vitro OXO BINDING (IC50: concentration which inhibits the specific binding of 3H-Oxo by 50%) | SMILES
1 | 1.5 ng/mL | COc1nsnc1C1=CCCN(C)C1.O=C(O)C(=O)O [Compound 1, 1,2,5,6-tetrahydro-3-(4-methoxy-1,2,5-thiadiazol-3-yl)-1-methylpyridine oxalate]
2 | 0.4 ng/mL | CCOc1nsnc1C1=CCCN(C)C1.O=C(O)C(=O)O [Compound 2, 3-(4-ethoxy-1,2,5-thiadiazol-3-yl)-1,2,5,6-tetrahydro-1-methylpyridine oxalate]
3 | 0.2 ng/mL | CCCOc1nsnc1C1=CCCN(C)C1.O=C(O)C(=O)O [Compound 3, 1,2,5,6-tetrahydro-1-methyl-3-(4-propoxy-1,2,5-thiadiazol-3-yl)pyridine oxalate]
4 | 3.5 ng/mL | CC(C)Oc1nsnc1C1=CCCN(C)C1 [Compound 5, 1,2,5,6-tetrahydro-3-(4-isopropoxy-1,2,5-thiadiazol-3-yl)-1-methylpyridineoxalate]
5 | 1.9 ng/mL | CCCCCOc1nsnc1C1=CCCN(C)C1.O=C(O)C(=O)O [Compound 6, 1,2,5,6-tetrahydro-1-methyl-3-(4-pentyloxy-1,2,5-thiadiazol-3-yl)pyridine oxalate]
6 | 1.9 ng/mL | CC(C)CCOc1nsnc1C1=CCCN(C)C1.O=C(O)C(=O)O [Compound 8, 1,2,5,6-tetrahydro-3-(4-isopentyloxy-1,2,5-thiadiazol-3-yl)-1-methylpyridine oxalate]
7 | 3.6 ng/mL | CCCCCCOc1nsnc1C1=CCCN(C)C1 [Compound 9, 3-(4-hexyloxy-1,2,5-thiadiazol-3-yl)-1,2,5,6-tetrahydro-1-methylpyridineoxalate]
8 | 2.3 ng/mL | CN1CCC=C(c2nsnc2OCc2ccccc2)C1.O=C(O)C(=O)O [Compound 10, 3-(4-benzyloxy-1,2,5-thiadiazol-3-yl)-1,2,5,6-tetrahydro-1-methylpyridine oxalate]
9 | 0.9 ng/mL | C=CCCOc1nsnc1C1=CCCN(C)C1.O=C(O)C(=O)O [Compound 11, 3-(4-(3-butenyloxy)-1,2,5-thiadiazol-3-yl)-1,2,5,6-tetrahydro-1-methylpyridine oxalate]
10 | 0.3 ng/mL | CC#CCOc1nsnc1C1=CCCN(C)C1.O=C(O)C(=O)O [Compound 12, 3-(4-(2-butynyloxy)-1,2,5-thiadiazol-3-yl)-1,2,5,6-tetrahydro-1-methylpyridine oxalate]
11 | 0.3 ng/mL | C#CCOc1nsnc1C1=CCCN(C)C1.O=C(O)C(=O)O [Compound 13, 1,2,5,6-tetrahydro-1-methyl-3-(4-propargyloxy-1,2,5-thiadiazol-3-yl)pyridine oxalate]
12 | 0.4 ng/mL | CN1CCC=C(c2nsnc2OCC2CC2)C1.O=C(O)C(=O)O [Compound 14, 3-(4-cyclopropylmethoxy-1,2,5-thiadiazol-3-yl)-1,2,5,6-tetrahydro-1-methylpyridine oxalate]
13 | 0.6 ng/mL | COCCOc1nsnc1C1=CCCN(C)C1.O=C(O)C(=O)O [Compound 15, 1,2,5,6-tetrahydro-3-(4-methoxyethoxy-1,2,5-thiadiazol-3-yl)-1-methylpyridine oxalate]
14 | 3.3 ng/mL | CN1CCC=C(c2nsnc2Cl)C1.O=C(O)C(=O)O [Compound 16, 3-(4-chloro-1,2,5-thiadiazol-3-yl)-1,2,5,6-tetrahydro-1-methylpyridine oxalate]
15 | 19.0 ng/mL | Cl.Clc1nsnc1C1=CCCNC1 [Compound 17, 3-(4-chloro-1,2,5-thiadiazol-3-yl)-1,2,5,6-tetrahydropyridine hydrochloride]
16 | 92 ng/mL | CCN1CCC=C(c2nsnc2Cl)C1.O=C(O)C(=O)O [Compound 19, 3-(4-chloro-1,2,5-thiadiazol-3-yl)-1-ethyl-1,2,5,6-tetrahydropyridine oxalate]
17 | 5.9 ng/mL | CCOc1nsnc1C1=CCCN(CC)C1.O=C(O)C(=O)O [Compound 20, 3-(4-ethoxy-1,2,5-thiadiazol-3-yl)-1-ethyl-1,2,5,6-tetrahydropyridine oxalate]
18 | 2.4 ng/mL | CCCCCCCOc1nsnc1C1=CCCN(C)C1.O=C(O)C(=O)O [Compound 21, 3-(4-heptyloxy-1,2,5-thiadiazol-3-yl)-1,2,5,6-tetrahydro-1-methylpyridine oxalate]
19 | 0.4 ng/mL | CC#CCCOc1nsnc1C1=CCCN(C)C1.O=C(O)C(=O)O [Compound 22, 3-(4-(3-pentynyloxy)-1,2,5-thiadiazol-3-yl)-1,2,5,6-tetrahydro-1-methylpyridine oxalate]
20 | 0.3 ng/mL | C=CCCCOc1nsnc1C1=CCCN(C)C1.O=C(O)C(=O)O [Compound 23, 3-(4-(4-pentenyloxy)-1,2,5-thiadiazol-3-yl)-1,2,5,6-tetrahydro-1-methylpyridine oxalate]
21 | 0.4 ng/mL | C=CCOc1nsnc1C1=CCCN(C)C1.O=C(O)C(=O)O [Compound 24, 3-(4-(2-propenyloxy)-1,2,5-thiadiazol-3-yl)-1,2,5,6-tetrahydro-1-methylpyridine oxalate]
22 | 12 ng/mL | CCCCCCCCOc1nsnc1C1=CCCN(C)C1 [Compound 25, 3-(4-octyloxy-1,2,5-thiadiazol-3-yl)-1,2,5,6-tetrahydro-1-methylpyridineoxalate]
23 | 0.4 ng/mL | CCC#CCCOc1nsnc1C1=CCCN(C)C1.O=C(O)C(=O)O [Compound 26, 3-(4-(3-hexynyloxy) -1,2,5-thiadiazol-3-yl)-1,2,5,6-tetrahydro-1-methylpyridine oxalate]
24 | 0.8 ng/mL | CC(C)=CCOc1nsnc1C1=CCCN(C)C1.O=C(O)C(=O)O [Compound 27, 3-(4-(3-methyl-2-butenyloxy)-1,2,5-thiadiazol-3-yl)-1,2,5,6-tetrahydro-1-methylpyridine oxalate]
25 | 1.3 ng/mL | C=CC(C)Oc1nsnc1C1=CCCN(C)C1 (stereo not shown) [Compound 28, 3-(4-(3-butenyl-2-oxy)-1,2,5-thiadiazol-3-yl)-1,2,5,6-tetrahydro-1-methylpyridine oxalate]
26 | 0.6 ng/mL | CC=CCCCOc1nsnc1C1=CCCN(C)C1.O=C(O)C(=O)O [Compound 29, 3-(4-(4-hexenyloxy)-1,2,5-thiadiazol-3-yl)-1,2,5,6-tetrahydro-1-methylpyridine oxalate]
27 | 0.4 ng/mL | CC/C=C/CCOc1nsnc1C1=CCCN(C)C1.O=C(O)C(=O)O [Compound 30, trans-3-(4-(3-hexenyloxy)-1,2,5-thiadiazol-3-yl)-1,2,5,6-tetrahydro-1-methylpyridine oxalate]
28 | 0.7 ng/mL | CC/C=C\COc1nsnc1C1=CCCN(C)C1.O=C(O)C(=O)O [Compound 31, cis-3-(4-(2-pentenyloxy)-1,2,5-thiadiazol-3-yl)-1,2,5,6-tetrahydro-1-methylpyridine oxalate]

Row | SMILES | Inhibition in vitro OXO BINDING (IC50: concentration which inhibits the specific binding of 3H-Oxo by 50%)
29 | CCCCOc1nsnc1C1=CCCN(C)C1.O=C(O)C(=O)O [Compound 4, 3-(4-butoxy-1,2,5-thiadiazol-3-yl)-1,2,5,6-tetrahydro-1-methylpyridine oxalate] | 0.5 ng/mL
30 | CC(C)COc1nsnc1C1=CCCN(C)C1.O=C(O)C(=O)O [Compound 7, 1,2,5,6-tetrahydro-3-(4-isobutoxy-1,2,5-thiadiazol-3-yl)-1-methylpyridine oxalate] | 1.7 ng/mL
31 | CCCCOc1nsnc1C1=CCCNC1.O=C(O)C(=O)O [Compound 18, 3-(4-butoxy-1,2,5-thiadiazol-3-yl)-1,2,5,6-tetrahydropyridine oxalate] | 3.6 ng/mL
